What all share (type): functional
The test system of one experiment is Staphylococcus aureus. In words: Minimum Inhibitory concentration against Staphylococcus aureus (CECT240).
Another experiment concerns Escherichia coli. Briefly: Minimum inhibitory concentration against Escherichia coli (CECT405).
The test system of a further experiment is Pseudomonas aeruginosa. In words: Minimum inhibitory concentration against Pseudomonas aeruginosa (CECT108).
In the next experiment the test system is Proteus mirabilis. Briefly: Minimum inhibitory concentration against Proteus mirabilis (CECT170).

Values after ≈ are worked out from the molar mass of the structure shown.

Turning to `CC(=O)Nc1cc(C)cc(/N=N/c2cc([N+](=O)[O-])cc([N+](=O)[O-])c2O)c1O`, the MIC90 with Staphylococcus aureus, against Escherichia coli, in the experiment with Pseudomonas aeruginosa and in the experiment with Proteus mirabilis was 130 µg/mL (≈ 346 µM) each time.

Regarding `O=C(N[C@H](CO)[C@H](O)c1ccc([N+](=O)[O-])cc1)C(Cl)Cl` [CHLORAMPHENICOL], the MIC90 (usually an inhibitory concentration at the 90% level, which refers to growth in some studies and to a panel of isolates in others) was 100 µg/mL (≈ 309 µM) in the experiment on Staphylococcus aureus, 10 µg/mL (≈ 30.9 µM) with Escherichia coli, 100 µg/mL (≈ 309 µM) in the experiment on Pseudomonas aeruginosa and 100 µg/mL (≈ 309 µM) against Proteus mirabilis.

For the compound `COc1cc2ccc(=O)oc2c(O[C@@H]2O[C@H](CO)[C@@H](O)[C@H](O)[C@H]2O)c1O` [FRAXINE], the MIC90 with Staphylococcus aureus, against Escherichia coli, in the experiment on Pseudomonas aeruginosa and against Proteus mirabilis was 1450 µg/mL (≈ 3920 µM) each time.

Turning to `COc1ccc([C@@H]2CC(=O)c3c(O)cc(O[C@@H]4O[C@H](CO[C@@H]5O[C@@H](C)[C@H](O)[C@@H](O)[C@H]5O)[C@@H](O)[C@H](O)[C@H]4O)cc3O2)cc1O` [HESPERIDIN], the MIC90 is 8 µg/mL (≈ 13.1 µM) in the experiment on Staphylococcus aureus and 25 µg/mL (≈ 40.9 µM) in the experiment on Pseudomonas aeruginosa.

As to `O=c1c(O)c(-c2ccc(O)cc2O)oc2cc(O)cc(O)c12` [MORIN], the MIC90 turned out to be 120 µg/mL (≈ 397 µM) with Staphylococcus aureus, 1380 µg/mL (≈ 4570 µM) with Escherichia coli, 120 µg/mL (≈ 397 µM) in the experiment on Pseudomonas aeruginosa and 120 µg/mL (≈ 397 µM) against Proteus mirabilis.

With `COc1ccc([C@@H]2CC(=O)c3c(O)cc(O[C@@H]4O[C@H](CO)[C@@H](O)[C@H](O)[C@H]4O[C@@H]4O[C@@H](C)[C@H](O)[C@@H](O)[C@H]4O)cc3O2)cc1O` [NEOHESPERIDIN], the MIC90 in the experiment with Staphylococcus aureus, against Escherichia coli, in the experiment with Pseudomonas aeruginosa and with Proteus mirabilis was 300 µg/mL (≈ 491 µM) each time.

With `O=C(O)c1cccnc1Nc1cccc(C(F)(F)F)c1` [NIFLUMIC ACID], the MIC90 against Staphylococcus aureus turned out to be 160 µg/mL (≈ 567 µM); in the experiment on Escherichia coli it was 1800 µg/mL (≈ 6380 µM); with Proteus mirabilis it was 1800 µg/mL (≈ 6380 µM).

In the case of SILYMARIN, the MIC90 against Staphylococcus aureus was found to be 80 µg/mL; in the experiment on Pseudomonas aeruginosa it was 200 µg/mL; against Proteus mirabilis, 700 µg/mL.

Values taken from ChEMBL document CHEMBL1133303, “Molecular topology: a useful tool for the search of new antibacterials” (2000).
